Measured values as given in ChEMBL document CHEMBL1201862, “PubChem BioAssay data set” (2004).
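Tested at 5 concentrations; 48 h exposure; 96-well plates; endpoints linearly interpolated, else capped at highest concentration. Abbreviation: GI50, concentration required for 50% inhibition of growth.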 Activity calls are given as the source filed them. No stated cut-off is given here; in the data, active = GI50 up to about 1.1 µM and inactive = higher.

Columns and labels:
Test in all cases: NCI anticancer screen, dose series, 48 h
SNB-19 = test system: SNB-19
K562 = test system: K562
HT-29 = test system: HT-29
OVCAR-4 = test system: OVCAR-4
A549 = test system: A549
OVCAR-5 = test system: OVCAR-5
NCI-H460 = test system: NCI-H460
UO-31 = test system: UO-31
A498 = test system: A498
DU-145 = test system: DU-145
786-0 = test system: 786-0
MOLT-4 = test system: MOLT-4
M14 = test system: M14
PC-3 = test system: PC-3
HCC 2998 = test system: HCC 2998
MDA-MB-231 = test system: MDA-MB-231
OVCAR-8 = test system: OVCAR-8
SK-OV-3 = test system: SK-OV-3
SK-MEL-28 = test system: SK-MEL-28
BT-549 = test system: BT-549
CCRF-CEM = test system: CCRF-CEM
SNB-75 = test system: SNB-75
HOP-62 = test system: HOP-62
RPMI-8226 = test system: RPMI-8226
SK-MEL-2 = test system: SK-MEL-2
Malme-3M = test system: Malme-3M
NCI-H522 = test system: NCI-H522
OVCAR-3 = test system: OVCAR-3
TK-10 = test system: TK-10
HL-60 = test system: HL-60
MCF7 = test system: MCF7
SW-620 = test system: SW-620
KM12 = test system: KM12
SF-295 = test system: SF-295
T47D = test system: T47D
MDA-MB-435 = test system: MDA-MB-435
HCT-116 = test system: HCT-116
U-251 = test system: U-251
CAKI-1 = test system: CAKI-1
SF-539 = test system: SF-539
UACC-257 = test system: UACC-257
UACC-62 = test system: UACC-62
Hs-578T = test system: Hs-578T
IGROV-1 = test system: IGROV-1
LOX IMVI = test system: LOX IMVI
RXF 393 = test system: RXF 393
NCI/ADR-RES = test system: NCI/ADR-RES
HCT-15 = test system: HCT-15
SF-268 = test system: SF-268
EKVX = test system: EKVX
NCI-H23 = test system: NCI-H23
MDA-N = test system: MDA-N
SK-MEL-5 = test system: SK-MEL-5
ACHN = test system: ACHN
NCI-H226 = test system: NCI-H226
SN12C = test system: SN12C
COLO 205 = test system: COLO 205
HOP-92 = test system: HOP-92

SMILES: CO/N=C(/C(=O)N(C(=O)/C(=N/OC)c1csc(NC(c2ccccc2)(c2ccccc2)c2ccccc2)n1)n1cnn(CC(=O)OC(C)(C)C)c1=O)c1csc(NC(c2ccccc2)(c2ccccc2)c2ccccc2)n1
- GI50 (SNB-19): > 10 µM (inactive)
- GI50 (K562): > 10 µM (inactive)
- GI50 (HT-29): > 10 µM (inactive)
- GI50 (OVCAR-4): > 10 µM (inactive)
- GI50 (A549): > 10 µM (inactive)
- GI50 (OVCAR-5): > 10 µM (inactive)
- GI50 (NCI-H460): > 10 µM (inactive)
- GI50 (UO-31): 0.0139 µM (active)
- GI50 (A498): > 10 µM (inactive)
- GI50 (DU-145): > 10 µM (inactive)
- GI50 (786-0): > 10 µM (inactive)
- GI50 (MOLT-4): > 10 µM (inactive)
- GI50 (M14): > 10 µM (inactive)
- GI50 (PC-3): 1.87 µM (inactive)
- GI50 (HCC 2998): > 10 µM (inactive)
- GI50 (MDA-MB-231): > 10 µM (inactive)
- GI50 (OVCAR-8): > 10 µM (inactive)
- GI50 (SK-OV-3): > 10 µM (inactive)
- GI50 (SK-MEL-28): > 10 µM (inactive)
- GI50 (BT-549): 2.16 µM (inactive)
- GI50 (CCRF-CEM): > 10 µM (inactive)
- GI50 (SNB-75): > 10 µM (inactive)
- GI50 (HOP-62): > 10 µM (inactive)
- GI50 (RPMI-8226): > 10 µM (inactive)
- GI50 (SK-MEL-2): 2.31 µM (inactive)
- GI50 (Malme-3M): > 10 µM (inactive)
- GI50 (NCI-H522): > 10 µM (inactive)
- GI50 (OVCAR-3): > 10 µM (inactive)
- GI50 (TK-10): > 10 µM (inactive)
- GI50 (HL-60): > 10 µM (inactive)
- GI50 (MCF7): > 10 µM (inactive)
- GI50 (SW-620): > 10 µM (inactive)
- GI50 (KM12): > 10 µM (inactive)
- GI50 (SF-295): > 10 µM (inactive)
- GI50 (T47D): > 10 µM (inactive)
- GI50 (MDA-MB-435): > 10 µM (inactive)
- GI50 (HCT-116): > 10 µM (inactive)
- GI50 (U-251): > 10 µM (inactive)
- GI50 (CAKI-1): > 10 µM (inactive)
- GI50 (SF-539): > 10 µM (inactive)
- GI50 (UACC-257): > 10 µM (inactive)
- GI50 (UACC-62): > 10 µM (inactive)
- GI50 (Hs-578T): > 10 µM (inactive)
- GI50 (IGROV-1): > 10 µM (inactive)
- GI50 (LOX IMVI): > 10 µM (inactive)
- GI50 (RXF 393): > 10 µM (inactive)
- GI50 (NCI/ADR-RES): > 10 µM (inactive)
- GI50 (HCT-15): > 10 µM
- GI50 (SF-268): > 10 µM (inactive)
- GI50 (EKVX): > 10 µM (inactive)
- GI50 (NCI-H23): > 10 µM (inactive)
- GI50 (MDA-N): > 10 µM (inactive)
- GI50 (SK-MEL-5): > 10 µM (inactive)
- GI50 (ACHN): > 10 µM (inactive)
- GI50 (NCI-H226): > 10 µM (inactive)
- GI50 (SN12C): > 10 µM (inactive)
- GI50 (COLO 205): > 10 µM (inactive)

SMILES: Cc1c(C(=O)Nc2ccccc2)nnn1-c1ccnc2cc(C(F)(F)F)ccc12
- GI50 (HOP-92): 24.9 µM (inactive)
- GI50 (SNB-19): 33.5 µM (inactive)
- GI50 (K562): 37.2 µM (inactive)
- GI50 (HT-29): 80.2 µM (inactive)
- GI50 (OVCAR-4): 34.5 µM (inactive)
- GI50 (A549): 89.5 µM (inactive)
- GI50 (OVCAR-5): > 100 µM (inactive)
- GI50 (NCI-H460): 41.6 µM (inactive)
- GI50 (UO-31): 30.4 µM (inactive)
- GI50 (A498): 82.8 µM (inactive)
- GI50 (DU-145): 49.3 µM (inactive)
- GI50 (786-0): 74 µM (inactive)
- GI50 (MOLT-4): 34 µM (inactive)
- GI50 (M14): 41.9 µM (inactive)
- GI50 (PC-3): 30.1 µM (inactive)
- GI50 (HCC 2998): 38.1 µM (inactive)
- GI50 (MDA-MB-231): 19.1 µM (inactive)
- GI50 (OVCAR-8): 76.9 µM (inactive)
- GI50 (SK-OV-3): > 100 µM (inactive)
- GI50 (SK-MEL-28): > 100 µM (inactive)
- GI50 (BT-549): > 100 µM (inactive)
- GI50 (CCRF-CEM): 39.4 µM (inactive)
- GI50 (SNB-75): 34.4 µM (inactive)
- GI50 (SK-MEL-2): > 100 µM (inactive)
- GI50 (Malme-3M): 37 µM (inactive)
- GI50 (NCI-H522): 64.7 µM (inactive)
- GI50 (OVCAR-3): 67.1 µM (inactive)
- GI50 (TK-10): 85.5 µM (inactive)
- GI50 (HL-60): 35 µM (inactive)
- GI50 (MCF7): 56.5 µM (inactive)
- GI50 (SW-620): > 100 µM (inactive)
- GI50 (KM12): 50.8 µM (inactive)
- GI50 (SF-295): 46.7 µM (inactive)
- GI50 (T47D): 32.4 µM (inactive)
- GI50 (MDA-MB-435): 40.8 µM (inactive)
- GI50 (HCT-116): 45.5 µM (inactive)
- GI50 (U-251): 68.4 µM (inactive)
- GI50 (CAKI-1): 37.5 µM (inactive)
- GI50 (SF-539): > 100 µM (inactive)
- GI50 (UACC-257): 22.1 µM (inactive)
- GI50 (UACC-62): 71.9 µM (inactive)
- GI50 (Hs-578T): > 100 µM (inactive)
- GI50 (IGROV-1): > 100 µM (inactive)
- GI50 (LOX IMVI): 28.6 µM (inactive)
- GI50 (RXF 393): 35.3 µM (inactive)
- GI50 (NCI/ADR-RES): 42.6 µM (inactive)
- GI50 (HCT-15): 45.3 µM
- GI50 (SF-268): 78.9 µM (inactive)
- GI50 (EKVX): 34.7 µM (inactive)
- GI50 (NCI-H23): 50.6 µM (inactive)
- GI50 (MDA-N): 33.3 µM (inactive)
- GI50 (SK-MEL-5): 20.5 µM (inactive)
- GI50 (ACHN): 54.7 µM (inactive)
- GI50 (NCI-H226): 57.4 µM (inactive)
- GI50 (SN12C): 53.2 µM (inactive)
- GI50 (COLO 205): 55 µM (inactive)
